This experiment has as its target T1, Enoyl-acyl-carrier protein reductase (Plasmodium falciparum, UniProt Q965D5).
T1 sequence (Q965D5 whole entry): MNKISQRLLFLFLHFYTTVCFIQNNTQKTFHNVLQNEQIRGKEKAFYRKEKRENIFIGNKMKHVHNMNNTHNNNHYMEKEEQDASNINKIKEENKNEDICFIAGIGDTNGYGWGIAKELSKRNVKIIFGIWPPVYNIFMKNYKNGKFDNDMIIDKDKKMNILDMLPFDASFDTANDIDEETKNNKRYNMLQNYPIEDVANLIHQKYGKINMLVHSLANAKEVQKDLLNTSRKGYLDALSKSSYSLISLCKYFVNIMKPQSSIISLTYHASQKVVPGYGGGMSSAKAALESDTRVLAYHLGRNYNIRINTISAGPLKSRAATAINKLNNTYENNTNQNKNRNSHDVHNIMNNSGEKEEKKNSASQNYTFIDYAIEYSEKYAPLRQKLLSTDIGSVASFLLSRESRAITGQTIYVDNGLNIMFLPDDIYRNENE
The experiment in a line: Inhibition of Plasmodium falciparum enoyl-ACP reductase assessed as oxidation of NADH to NAD+ after 10 mins by spectrophotometric analysis.

A word on the IC50: it is the concentration at which inhibition is half-maximal. Turning to `COc1c(-c2ccc(O)cc2)oc2cc(O)cc(O)c2c1=O` [ISOKAEMPFERIDE], the IC50 result is “Not Active”.
The same measure, in the same setting: to `CC(C)=CCc1cc(O[C@@H]2O[C@H](CO)[C@@H](O)[C@H](O)[C@H]2O)ccc1O` [NEBRODENSIDE A] belongs “Not Active”.
Take `COc1cc(C(=O)O)ccc1O` [VANILLIC ACID]: the IC50 (read-out: IC50) is 920 µM.
With `C[C@H]1C[C@@H](O)[C@]2(C)C(C(=O)O)=CCC[C@H]2[C@]1(C)CCc1ccoc1`, the IC50 result was “Not Active”.
Still for that read-out and setting: to `CCCCCCCCCCCCCCCCCCCCCCOC(=O)/C=C/c1ccc(O)c(O)c1` [DOCOSYL CAFFEATE] belongs “Not Active”.
With `COc1ccc(-c2oc3c(Cc4c(O)c(OC)c(O)c5c(=O)c(OC)c(-c6ccc(OC)cc6)oc45)c(O)c(OC)c(O)c3c(=O)c2OC)cc1` [METHYLENEBISSANTIN], the IC50 (read-out: IC50) stood at 91.1 µM.
